In publication PMC5840262, “Design, Synthesis and Evaluation of Branched RRWQWR-Based Peptides as Antibacterial Agents Against Clinically Relevant Gram-Positive and Gram-Negative Pathogens” (Frontiers in Microbiology, 2018):
Like-named read-outs stand apart in the source and are kept apart here. Ends that are not written are not given here.

Assays:
Format in all cases: cell-based
[1] = test system: Enterococcus faecium clinical isolate 1,225
Procedure: (§1) For the clinical isolates, we used 20 different isolates from the Public Health Reference Laboratory collection of the Secretaría de Salud del Distrito (SdSD; Bogotá, Colombia). The samples were collected from June to December 2016. For each isolate, the patient parameters (age, gender and location) and the culture site were recorded for epidemiologic monitoring (Table 1). All isolates had been previously tested for antibiotic sensitivity at the Public Health Microbiology Laboratory using either the Phoenix™ system (Gram-positive) or the VITEK 2 system (Gram-negative).
(§2) We screened all five peptides against the ATCC reference strains and the clinical isolates according to Method M7-A7 of the National Committee for Clinical Laboratory Standards (CLSI, [2007]). The MIC50 and MBC values were determined using a broth microdilution and growth inhibition method previously reported by Leon-Calvijo et al. ([2015]), with some modifications (Wiegand et al., [2008]). Briefly, the MIC50 experiments comprised a liquid-inhibition growth assay in a sterile, untreated, 96-well flat-bottom tissue culture plate. The bacteria were cultured overnight n Mueller Hinton agar; three colonies were transferred to 8 mL of Mueller Hilton broth and incubated at 37°C until the mid-exponential phase of growth. The turbidity of the cultures was measured and adjusted spectrophotometrically to a McFarland standard of 0.5, and then diluted to a final concentration of 5 × 10^7 colony forming units (CFU) per well. Stock solutions (2,000 μM) of each test peptide were serially diluted to final concentrations (per well) of 200, 100, 50, 25, 12.5, and 6.25 μM. Each concentration was evaluated in duplicate and each assay was performed in triplicate.
(§3) Wells containing Mueller Hilton broth with bacterial inoculum only served as bacterial-growth controls. Additional controls included Mueller Hilton broth alone (as blank) and Mueller Hilton broth with ciprofloxacin (2 μg/mL; as positive control). The microplate was incubated for 24 h at 37°C, and growth inhibition was measured by monitoring the optical density at 620 nm (OD620). The MIC50 was defined as the peptide concentration at which bacterial growth was inhibited by 50%.
(§4) To determine the MBC, an aliquot from each well of the MIC50 assay was spread onto Mueller Hilton agar. After 18 h at 37°C, the concentration that inhibited bacterial growth was determined. Each of these tests was performed four times. MBC was defined as the lowest concentration of peptide at which the number of bacteria was reduced by 99.9% in vitro (European Committee for Antimicrobial Susceptibility Testing, [2000]).

[2] = test system: Enterococcus faecium clinical isolate 1,461
Procedure: as §1, §2, §3, §4

[3] = test system: Enterococcus faecium clinical isolate 1,462
Procedure: as §1, §2, §3, §4

[4] = test system: Enterococcus faecium clinical isolate 550
Procedure: as §1, §2, §3, §4

[5] = test system: Klebsiella pneumoniae clinical isolate 49,644
Procedure: as §1, §2, §3, §4

[6] = test system: Klebsiella pneumoniae clinical isolate 50,181
Procedure: as §1, §2, §3, §4

[7] = test system: Klebsiella pneumoniae clinical isolate 50,424
Procedure: as §1, §2, §3, §4

[8] = test system: Klebsiella pneumoniae clinical isolate 51,009
Procedure: as §1, §2, §3, §4

[9] = test system: Klebsiella pneumoniae clinical isolate 51,048
Procedure: as §1, §2, §3, §4

[10] = test system: Pseudomonas aeruginosa clinical isolate 47,661
Procedure: as §1, §2, §3, §4

[11] = test system: Pseudomonas aeruginosa clinical isolate 48,221
Procedure: as §1, §2, §3, §4

[12] = test system: Pseudomonas aeruginosa clinical isolate 48,458
Procedure: as §1, §2, §3, §4

[13] = test system: Pseudomonas aeruginosa clinical isolate 48,526
Procedure: as §1, §2, §3, §4

[14] = test system: Staphylococcus aureus clinical isolate 43,062
Procedure: as §1, §2, §3, §4

[15] = test system: Staphylococcus aureus clinical isolate 43,337
Procedure: as §1, §2, §3, §4

[16] = test system: Staphylococcus aureus clinical isolate 48,575
Procedure: as §1, §2, §3, §4

[17] = test system: Staphylococcus aureus clinical isolate 48,577
Procedure: as §1, §2, §3, §4

RRWQWR-NH2 [LfcinB (20–25), reference compound]
3.7 µM: MIC50 ([15]; S. aureus isolate 43,337, broth microdilution, 24 h 37°C, OD620, 50% growth inhibition) | MIC50 ([16]; S. aureus isolate 48,575, broth microdilution, 24 h 37°C, OD620, 50% growth inhibition) | MIC50 ([17]; S. aureus isolate 48,577, broth microdilution, 24 h 37°C, OD620, 50% growth inhibition)
>100 µM: MIC50 ([1]; E. faecium isolate 1,225, broth microdilution, 24 h 37°C, OD620, 50% growth inhibition) | MBC ([1]; E. faecium isolate 1,225, plated on agar 18 h 37°C, 99.9% reduction) | MIC50 ([2]; E. faecium isolate 1,461, broth microdilution, 24 h 37°C, OD620, 50% growth inhibition) | MBC ([2]; E. faecium isolate 1,461, plated on agar 18 h 37°C, 99.9% reduction) | MIC50 ([3]; E. faecium isolate 1,462, broth microdilution, 24 h 37°C, OD620, 50% growth inhibition) | MBC ([3]; E. faecium isolate 1,462, plated on agar 18 h 37°C, 99.9% reduction) | MIC50 ([4]; E. faecium isolate 550, broth microdilution, 24 h 37°C, OD620, 50% growth inhibition) | MBC ([4]; E. faecium isolate 550, plated on agar 18 h 37°C, 99.9% reduction) | MIC50 ([5]; K. pneumoniae isolate 49,644, broth microdilution, 24 h 37°C, OD620, 50% growth inhibition) | MBC ([5]; K. pneumoniae isolate 49,644, plated on agar 18 h 37°C, 99.9% reduction) | MIC50 ([6]; K. pneumoniae isolate 50,181, broth microdilution, 24 h 37°C, OD620, 50% growth inhibition) | MBC ([6]; K. pneumoniae isolate 50,181, plated on agar 18 h 37°C, 99.9% reduction) | MBC ([7]; K. pneumoniae isolate 50,424, plated on agar 18 h 37°C, 99.9% reduction) | MIC50 ([8]; K. pneumoniae isolate 51,009, broth microdilution, 24 h 37°C, OD620, 50% growth inhibition) | MBC ([8]; K. pneumoniae isolate 51,009, plated on agar 18 h 37°C, 99.9% reduction) | MIC50 ([9]; K. pneumoniae isolate 51,048, broth microdilution, 24 h 37°C, OD620, 50% growth inhibition) | MBC ([9]; K. pneumoniae isolate 51,048, plated on agar 18 h 37°C, 99.9% reduction) | MIC50 ([10]; P. aeruginosa isolate 47,661, broth microdilution, 24 h 37°C, OD620, 50% growth inhibition) | MBC ([10]; P. aeruginosa isolate 47,661, plated on agar 18 h 37°C, 99.9% reduction) | MIC50 ([11]; P. aeruginosa isolate 48,221, broth microdilution, 24 h 37°C, OD620, 50% growth inhibition) | MBC ([11]; P. aeruginosa isolate 48,221, plated on agar 18 h 37°C, 99.9% reduction) | MIC50 ([12]; P. aeruginosa isolate 48,458, broth microdilution, 24 h 37°C, OD620, 50% growth inhibition) | MBC ([12]; P. aeruginosa isolate 48,458, plated on agar 18 h 37°C, 99.9% reduction) | MIC50 ([13]; P. aeruginosa isolate 48,526, broth microdilution, 24 h 37°C, OD620, 50% growth inhibition) | MBC ([13]; P. aeruginosa isolate 48,526, plated on agar 18 h 37°C, 99.9% reduction) | MBC ([14]; S. aureus isolate 43,062, plated on agar 18 h 37°C, 99.9% reduction) | MBC ([15]; S. aureus isolate 43,337, plated on agar 18 h 37°C, 99.9% reduction) | MBC ([16]; S. aureus isolate 48,575, plated on agar 18 h 37°C, 99.9% reduction) | MBC ([17]; S. aureus isolate 48,577, plated on agar 18 h 37°C, 99.9% reduction)
11.3 µM: MIC50 ([7]; K. pneumoniae isolate 50,424, broth microdilution, 24 h 37°C, OD620, 50% growth inhibition)
5.1 µM: MIC50 ([14]; S. aureus isolate 43,062, broth microdilution, 24 h 37°C, OD620, 50% growth inhibition)

RWQWRWQWR [PLS]
75.0 µM: MIC50 ([10]; clinical isolate 47,661, 24 h)
5.6 µM: MIC50 ([7]; clinical isolate 50,424, 24 h)
>100 µM: MIC50 ([1]; clinical isolate 1,225, 24 h) | MIC50 ([2]; clinical isolate 1,461, 24 h) | MIC50 ([4]; clinical isolate 550, 24 h) | MBC ([6]; clinical isolate 50,181, 18 h) | MIC50 ([6]; clinical isolate 50,181, 24 h) | MBC ([7]; clinical isolate 50,424, 18 h) | MBC ([9]; clinical isolate 51,048, 18 h) | MBC ([10]; clinical isolate 47,661, 18 h) | MBC ([11]; clinical isolate 48,221, 18 h) | MIC50 ([11]; clinical isolate 48,221, 24 h) | MBC ([12]; clinical isolate 48,458, 18 h) | MIC50 ([12]; clinical isolate 48,458, 24 h) | MIC50 ([13]; clinical isolate 48,526, 24 h)
36.5 µM: MIC50 ([16]; clinical isolate 48,575, 24 h)
5.7 µM: MIC50 ([3]; clinical isolate 1,462, 24 h)
50.4 µM: MIC50 ([14]; clinical isolate 43,062, 24 h)
50.0 µM: MBC ([15]; clinical isolate 43,337, 18 h)
11.7 µM: MIC50 ([9]; clinical isolate 51,048, 24 h)
12.5 µM: MIC50 ([5]; clinical isolate 49,644, 24 h)
13.0 µM: MIC50 ([15]; clinical isolate 43,337, 24 h)
25.6 µM: MIC50 ([8]; clinical isolate 51,009, 24 h)
100.0 µM: MBC ([1]; clinical isolate 1,225, 18 h) | MBC ([2]; clinical isolate 1,461, 18 h) | MBC ([3]; clinical isolate 1,462, 18 h) | MBC ([4]; clinical isolate 550, 18 h) | MBC ([5]; clinical isolate 49,644, 18 h) | MBC ([8]; clinical isolate 51,009, 18 h) | MBC ([13]; clinical isolate 48,526, 18 h) | MBC ([14]; clinical isolate 43,062, 18 h) | MBC ([16]; clinical isolate 48,575, 18 h) | MBC ([17]; clinical isolate 48,577, 18 h)
